Experimental data from ChEMBL document CHEMBL4118071, “Discovery of unsymmetrical aromatic disulfides as novel inhibitors of SARS-CoV main protease: Chemical synthesis, biological evaluation, molecular docking and 3D-QSAR study” (Eur J Med Chem, 2017).
Activity calls are given as the source filed them. The calls are words filed in the database; no cut-off is given here.

Key:
[1] = Inhibition of SARS coronavirus Mpro using MCA-AVLQSGFR-Lys(Dnp)-Lys-NH as substrate by fluorescence assay; set-up: species or system Severe acute respiratory syndrome-related coronavirus
[2] = test system: Severe acute respiratory syndrome-related coronavirus
[3] = test system: Severe acute respiratory syndrome-related coronavirus; conditions: 2 to 4 uM

In the case of CCOC(=O)/C=C/[C@H](C[C@@H]1CCNC1=O)NC(=O)[C@H](CCC(C)C)NC(=O)[C@@H](NC(=O)[C@@H](NC(=O)c1ccco1)C(C)C)C(C)C, the Ki [1] is reported as 6.7 µM.

In the case of Clc1ccc(SSc2nnco2)cc1, the alphaKi [2] is reported as 0.2 µM.

For Brc1ccc(SSc2ncccn2)cc1, the inhibition [3] was “Active”.
